Tests used:
Assay type in all cases: in vivo
[1] = tested on: ragweed (common ragweed, Ambrosia elatior); test: Test C preemergence, plant response rating; details: Preemergence
Procedure, shortened: (§1)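 Greenhouse plants rated visually against untreated controls 13–15 d after treatment, scale 0 = no effect to 100 = complete control. Postemergence sprays went onto potted plants 2–18 cm tall (1–4 leaves); preemergence sprays onto soil freshly sown in loam–sand or silt loam, chemicals formulated in non-phytotoxic solvent with surfactant.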

[2] = tested on: crabgrass, large (large crabgrass, Digitaria sanguinalis); test: Test C preemergence, plant response rating; details: Preemergence
Procedure, shortened: as §1

[3] = tested on: ryegrass, Italian (Italian ryegrass, Lolium multiflorum); test: Test C preemergence, plant response rating; details: Preemergence
Procedure, shortened: as §1

[4] = tested on: lambsquarters (Chenopodium album); test: Test C preemergence, plant response rating; details: Preemergence
Procedure, shortened: as §1

[5] = tested on: blackgrass (Alopecurus myosuroides); test: Test C preemergence, plant response rating; details: Preemergence
Procedure, shortened: as §1

[6] = tested on: wheat (winter wheat, Triticum aestivum); test: Test C preemergence, plant response rating; details: Preemergence
Procedure, shortened: as §1

corn (Zea mays) = test: Test C preemergence, plant response rating; details: Preemergence
Procedure, shortened: as §1

[7] = tested on: velvetleaf (Abutilon theophrasti); test: Test C preemergence, plant response rating; details: Preemergence
Procedure, shortened: as §1

[8] = tested on: oilseed rape (Brassica napus); test: Test C preemergence, plant response rating; details: Preemergence
Procedure, shortened: as §1

[9] = tested on: nutsedge, yellow (yellow nutsedge, Cyperus esculentus); test: Test C preemergence, plant response rating; details: Preemergence
Procedure, shortened: as §1

[10] = tested on: morningglory (Ipomoea coccinea); test: Test C preemergence, plant response rating; details: Preemergence
Procedure, shortened: as §1

soybean (Glycine max) = test: Test C preemergence, plant response rating; details: Preemergence
Procedure, shortened: as §1

[11] = tested on: waterhemp (common waterhemp, Amaranthus rudis); test: Test C preemergence, plant response rating; details: Preemergence
Procedure, shortened: as §1

[12] = tested on: foxtail, giant (giant foxtail, Setaria faberii); test: Test C preemergence, plant response rating; details: Preemergence
Procedure, shortened: as §1

[13] = tested on: blackgrass (Alopecurus myosuroides); test: Test C postemergence, plant response rating; details: for Plant response rating, Blackgrass: scale 0 to 100; for Blackgrass plant response rating: scale 0 to 100 (0 no effect, 100 complete control)
Procedure, shortened: as §1

[14] = tested on: wheat (winter wheat, Triticum aestivum); test: Test C postemergence, plant response rating
Procedure, shortened: as §1

[15] = tested on: barnyardgrass (Echinochloa crus-galli); test: Test C postemergence, plant response rating; details: for Plant response rating, Barnyardgrass: scale 0 to 100; for Barnyardgrass plant response rating: scale 0 to 100 (0 no effect, 100 complete control)
Procedure, shortened: as §1

[16] = tested on: velvetleaf (Abutilon theophrasti); test: Test C postemergence, plant response rating
Procedure, shortened: as §1

[17] = tested on: oilseed rape (Brassica napus); test: Test C postemergence, plant response rating; details: for Oilseed Rape plant response rating: scale 0 to 100 (0 no effect, 100 complete control)
Procedure, shortened: as §1

[18] = tested on: morningglory (Ipomoea coccinea); test: Test C postemergence, plant response rating; details: for Morningglory plant response rating: scale 0 to 100 (0 no effect, 100 complete control)
Procedure, shortened: as §1

[19] = tested on: foxtail, giant (giant foxtail, Setaria faberii); test: Test C postemergence, plant response rating; details: for Foxtail, Giant plant response rating: scale 0 to 100 (0 no effect, 100 complete control)
Procedure, shortened: as §1

[20] = 125 g ai/ha, scale 0 to 100 (0 no effect, 100 complete control)

Compound: O=C(CCCC(F)(F)F)c1c(Oc2ncc(Cl)cn2)cccc1C(F)(F)F [Compound 125]
- Plant response rating, Ragweed ([1]; 125 g ai/ha, scale of 0 to 100): 35
- Plant response rating, Ragweed ([1]; 31 g ai/ha, scale 0 to 100): 10
- Plant response rating, Ragweed ([1]; 62 g ai/ha, scale 0 to 100): 5
- Plant response rating, Crabgrass, Large ([2]; 125 g ai/ha, scale of 0 to 100): 100
- Plant response rating, Crabgrass, Large ([2]; 16 g ai/ha, scale 0 to 100): 35
- Plant response rating, Crabgrass, Large ([2]; 31 g ai/ha, scale 0 to 100): 98
- Plant response rating, Crabgrass, Large ([2]; 62 g ai/ha, scale 0 to 100): 100
- Plant response rating, Ryegrass, Italian ([3]; 125 g ai/ha, scale of 0 to 100): 85
- Plant response rating, Ryegrass, Italian ([3]; 31 g ai/ha, scale 0 to 100): 30
- Plant response rating, Ryegrass, Italian ([3]; 62 g ai/ha, scale 0 to 100): 40
- Plant response rating, Lambsquarters ([4]; 125 g ai/ha, scale of 0 to 100): 95
- Plant response rating, Lambsquarters ([4]; 31 g ai/ha, scale 0 to 100): 30
- Plant response rating, Lambsquarters ([4]; 62 g ai/ha, scale 0 to 100): 60
- Plant response rating, Blackgrass ([5]; 125 g ai/ha, scale of 0 to 100): 90
- Plant response rating, Blackgrass ([5]; 16 g ai/ha, scale 0 to 100): 5
- Plant response rating, Blackgrass ([5]; 31 g ai/ha, scale 0 to 100): 60
- Plant response rating, Blackgrass ([5]; 62 g ai/ha, scale 0 to 100): 60
- Plant response rating, Wheat ([6]; 125 g ai/ha, scale of 0 to 100): 5
- Plant response rating, Wheat ([6]; 31 g ai/ha, scale 0 to 100): 0
- Plant response rating, Wheat ([6]; 62 g ai/ha, scale 0 to 100): 0
- Plant response rating, Corn (corn (Zea mays); 125 g ai/ha, scale of 0 to 100): 5
- Plant response rating, Corn (corn (Zea mays); 16 g ai/ha, scale 0 to 100): 0
- Plant response rating, Corn (corn (Zea mays); 31 g ai/ha, scale 0 to 100): 0
- Plant response rating, Corn (corn (Zea mays); 62 g ai/ha, scale 0 to 100): 5
- Plant response rating, Velvetleaf ([7]; 125 g ai/ha, scale of 0 to 100): 65
- Plant response rating, Velvetleaf ([7]; 31 g ai/ha, scale 0 to 100): 5
- Plant response rating, Velvetleaf ([7]; 62 g ai/ha, scale 0 to 100): 60
- Plant response rating, Oilseed Rape ([8]; 125 g ai/ha, scale of 0 to 100): 80
- Plant response rating, Oilseed Rape ([8]; 31 g ai/ha, scale 0 to 100): 5
- Plant response rating, Oilseed Rape ([8]; 62 g ai/ha, scale 0 to 100): 50
- Plant response rating, Nutsedge, Yellow ([9]; 125 g ai/ha, scale of 0 to 100): 5
- Plant response rating, Nutsedge, Yellow ([9]; 31 g ai/ha, scale 0 to 100): 0
- Plant response rating, Nutsedge, Yellow ([9]; 62 g ai/ha, scale 0 to 100): 0
- Plant response rating, Morningglory ([10]; 125 g ai/ha, scale of 0 to 100): 50
- Plant response rating, Morningglory ([10]; 31 g ai/ha, scale 0 to 100): 10
- Plant response rating, Morningglory ([10]; 62 g ai/ha, scale 0 to 100): 10
- Plant response rating, Soybean (soybean (Glycine max); 125 g ai/ha, scale of 0 to 100): 20
- Plant response rating, Soybean (soybean (Glycine max); 31 g ai/ha, scale 0 to 100): 0
- Plant response rating, Soybean (soybean (Glycine max); 62 g ai/ha, scale 0 to 100): 0
- Plant response rating, Waterhemp ([11]; 125 g ai/ha, scale of 0 to 100): 100
- Plant response rating, Waterhemp ([11]; 31 g ai/ha, scale 0 to 100): 100
- Plant response rating, Waterhemp ([11]; 62 g ai/ha, scale 0 to 100): 100
- Plant response rating, Foxtail, Giant ([12]; 125 g ai/ha, scale of 0 to 100): 100
- Plant response rating, Foxtail, Giant ([12]; 31 g ai/ha, scale 0 to 100): 85
- Plant response rating, Foxtail, Giant ([12]; 62 g ai/ha, scale 0 to 100): 98
- Plant response rating, Blackgrass ([13]; 16 g ai/ha): 10
- Plant response rating, Blackgrass ([13]; 31 g ai/ha): 20
- Blackgrass plant response rating ([13]; 62 g ai/ha): 15
- Blackgrass plant response rating ([13]; 125 g ai/ha): 30
- Plant response rating, Wheat ([14]; 16 g ai/ha, scale of 0 to 100): 5
- Plant response rating, Wheat ([14]; 31 g ai/ha, scale 0 to 100): 5
- Wheat plant response rating [14, 20]: 25
- Plant response rating, Barnyardgrass ([15]; 16 g ai/ha): 5
- Plant response rating, Barnyardgrass ([15]; 31 g ai/ha): 5
- Barnyardgrass plant response rating ([15]; 62 g ai/ha): 5
- Barnyardgrass plant response rating ([15]; 125 g ai/ha): 10
- Plant response rating, Velvetleaf ([16]; 16 g ai/ha, scale of 0 to 100): 20
- Plant response rating, Velvetleaf ([16]; 31 g ai/ha, scale 0 to 100): 35
- Velvetleaf plant response rating [16, 20]: 30
- Plant response rating, Oilseed Rape ([17]; 16 g ai/ha, scale of 0 to 100): 80
- Plant response rating, Oilseed Rape ([17]; 31 g ai/ha, scale 0 to 100): 85
- Oilseed Rape plant response rating ([17]; 62 g ai/ha): 90
- Oilseed Rape plant response rating ([17]; 125 g ai/ha): 95
- Plant response rating, Morningglory ([18]; 16 g ai/ha, scale of 0 to 100): 20
- Plant response rating, Morningglory ([18]; 31 g ai/ha, scale 0 to 100): 45
- Morningglory plant response rating ([18]; 62 g ai/ha): 50
- Morningglory plant response rating ([18]; 125 g ai/ha): 75
- Plant response rating, Foxtail, Giant ([19]; 16 g ai/ha, scale of 0 to 100): 10
- Plant response rating, Foxtail, Giant ([19]; 31 g ai/ha, scale 0 to 100): 10
- Foxtail, Giant plant response rating ([19]; 62 g ai/ha): 10
- Foxtail, Giant plant response rating ([19]; 125 g ai/ha): 25

From patent US11053204B2, “Pyrimidinyloxy benzene derivatives as herbicides” (FMC Corporation, priority 2015, dated 2021)
